Experimental data: patent US20080200454A1, “CARBON-LINKED TETRAHYDRO-PYRAZOLO-PYRIDINE MODULATORS OF CATHEPSIN S” (priority 2007, published 2008)
Read-outs that look alike come from different tables or passages of the source.

Molecular target: Recombinant human cathepsin S (CatS) (Homo sapiens, UniProt P25774)
Assay: Recombinant human cathepsin S (CatS) inhibition assay, fluorogenic substrate Z-Valine-Valine-Arginine-AMC;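 also: Baculovirus-expressed CatS in pH 5.0 sodium acetate buffer with DTT and NaCl, fluorescence read each minute over 20 min, inhibition derived from rate slope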

Recombinant human cathepsin S (CatS), sequence (P25774 115-331): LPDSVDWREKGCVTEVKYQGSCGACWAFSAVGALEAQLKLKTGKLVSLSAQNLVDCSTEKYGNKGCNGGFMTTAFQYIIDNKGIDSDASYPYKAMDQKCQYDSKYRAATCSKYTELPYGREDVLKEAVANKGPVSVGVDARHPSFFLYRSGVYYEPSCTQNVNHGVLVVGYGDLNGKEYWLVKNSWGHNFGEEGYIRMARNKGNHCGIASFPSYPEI

| IC50 [nM] | SMILES | IC50 (CatS IC50) [nM] |
| --- | --- | --- |
| – | CS(=O)(=O)NC1CCN(CCCn2nc(-c3ccc(Cl)c(C#Cc4ccc(CNCc5ccc(Cl)cc5)cc4)c3)c3c2CCN(S(C)(=O)=O)C3)CC1 [Example 359, N-(1-{3-[3-(4-Chloro-3-{[4-({[(4-chlorophenyl)methyl]amino}methyl)phenyl]ethynyl}phenyl)-5-(methylsulfonyl)-4,5,6,7-tetrahydro-1H-pyrazolo[4,3-c]pyridin-1-yl]propyl}piperidin-4-yl)methanesulfonamide] | 80 |
| 170 | CS(=O)(=O)N1CCc2c(c(-c3ccc(Cl)c(C#Cc4ccc5c(c4)CNCC5)c3)nn2CCCN2CCOCC2)C1 [Example 360, 7-({2-Chloro-5-[5-(methylsulfonyl)-1-(3-morpholin-4-ylpropyl)-4,5,6,7-tetrahydro-1H-pyrazolo[4,3-c]pyridin-3-yl]phenyl}ethynyl)-1,2,3,4-tetrahydroisoquinoline] | – |
| 170 | CS(=O)(=O)N1CCc2c(c(-c3ccc(Cl)c(C#Cc4ccc(CNCc5ccc(Cl)cc5)cc4)c3)nn2CC(O)CN2CCCCC2)C1 (stereo not shown) [Example 361, 1-[3-(4-Chloro-3-{[4-({[(4-chlorophenyl)methyl]amino}methyl)phenyl]ethynyl}phenyl)-5-(methylsulfonyl)-4,5,6,7-tetrahydro-1H-pyrazolo[4,3-c]pyridin-1-yl]-3-piperidin-1-ylpropan-2-ol] | – |
| 50 | CC(=O)NC1CCN(CC(O)Cn2nc(-c3ccc(Cl)c(C#Cc4ccc(CNCc5ccc(Cl)cc5)cc4)c3)c3c2CCN(S(C)(=O)=O)C3)CC1 (stereo not shown) [Example 362, N-(1-{3-[3-(4-Chloro-3-{[4-({[(4-chlorophenyl)methyl]amino}methyl)phenyl]ethynyl}phenyl)-5-(methylsulfonyl)-4,5,6,7-tetrahydro-1H-pyrazolo[4,3-c]pyridin-1-yl]-2-hydroxypropyl}piperidin-4-yl)acetamide] | – |
| 90 | CS(=O)(=O)N1CCc2c(c(-c3ccc(Cl)c(C#Cc4ccc(CNCc5ccc(Cl)cc5)cc4)c3)nn2CC(O)CN2CCC(C(N)=O)CC2)C1 (stereo not shown) [Example 363, 1-{3-[3-(4-Chloro-3-{[4-({[(4-chlorophenyl)methyl]amino}methyl)phenyl]ethynyl}phenyl)-5-(methylsulfonyl)-4,5,6,7-tetrahydro-1H-pyrazolo[4,3-c]pyridin-1-yl]-2-hydroxypropyl}piperidine-4-carboxamide] | – |
| – | CS(=O)(=O)N1CCc2c(c(-c3ccc(Cl)c(C#Cc4ccc5c(c4)CN(C(=O)C(F)(F)F)C5)c3)nn2CCCN2CCOCC2)C1 [Example 364, 3-(4-Chloro-3-{[2-(trifluoroacetyl)-2,3-dihydro-1H-isoindol-5-yl]ethynyl}phenyl)-5-(methylsulfonyl)-1-(3-morpholin-4-ylpropyl)-4,5,6,7-tetrahydro-1H-pyrazolo[4,3-c]pyridine] | 170 |
| 280 | CS(=O)(=O)N1CCc2c(c(-c3ccc(Cl)c(C#Cc4ccc5c(c4)CCNC5)c3)nn2CCCN2CCOCC2)C1 [Example 365, 6-({2-Chloro-5-[5-(methylsulfonyl)-1-(3-morpholin-4-ylpropyl)-4,5,6,7-tetrahydro-1H-pyrazolo[4,3-c]pyridin-3-yl]phenyl}ethynyl)-1,2,3,4-tetrahydroisoquinoline] | – |
| 680 | CS(=O)(=O)N1CCc2c(c(-c3ccc(Cl)c(C#Cc4cccc5c4CNCC5)c3)nn2CCCN2CCOCC2)C1 [Example 366, 8-({2-Chloro-5-[5-(methylsulfonyl)-1-(3-morpholin-4-ylpropyl)-4,5,6,7-tetrahydro-1H-pyrazolo[4,3-c]pyridin-3-yl]phenyl}ethynyl)-1,2,3,4-tetrahydroisoquinoline] | – |
| – | CC(C)(C)OC(=O)N1CCN(CCCn2nc(-c3ccc(Cl)c(C#Cc4ccc(CNCc5ccc(Cl)cc5)cc4)c3)c3c2CCN(S(C)(=O)=O)C3)CC1 [Example 367, 1,1-Dimethylethyl 4-{3-[3-(4-chloro-3-{[4-({[(4-chlorophenyl)methyl]amino}methyl)phenyl]ethynyl}phenyl)-5-(methylsulfonyl)-4,5,6,7-tetrahydro-1H-pyrazolo[4,3-c]pyridin-1-yl]propyl}piperazine-1-carboxylate] | 90 |
| – | CS(=O)(=O)N1CCc2c(c(-c3ccc(Cl)c(C#Cc4ccc(CNCc5ccc(Cl)cc5)cc4)c3)nn2CCCN2CCNCC2)C1 [Example 368, 1-[4-({2-Chloro-5-[5-(methylsulfonyl)-1-(3-piperazin-1-ylpropyl)-4,5,6,7-tetrahydro-1H-pyrazolo[4,3-c]pyridin-3-yl]phenyl}ethynyl)phenyl]-N-[(4-chlorophenyl)methyl]methanamine] | 330 |
| 410 | CC(=O)NC1CCN(CCCn2nc(-c3ccc(Cl)c(C#Cc4ccc(CNCc5ccc(Cl)cc5)cc4)c3)c3c2CCNC3)CC1 [Example 369, N-(1-{3-[3-(4-Chloro-3-{[4-({[(4-chlorophenyl)methyl]amino}methyl)phenyl]ethynyl}phenyl)-4,5,6,7-tetrahydro-1H-pyrazolo[4,3-c]pyridin-1-yl]propyl}piperidin-4-yl)acetamide] | – |
| 720 | CC(C)(C)OC(=O)N1CCc2ccc(C#Cc3cc(-c4nn(CCCN5CCOCC5)c5c4CN(S(C)(=O)=O)CC5)ccc3Cl)cc2C1 [Example 370, 1,1-Dimethylethyl 7-({2-chloro-5-[5-(methylsulfonyl)-1-(3-morpholin-4-ylpropyl)-4,5,6,7-tetrahydro-1H-pyrazolo[4,3-c]pyridin-3-yl]phenyl}ethynyl)-3,4-dihydroisoquinoline-2(1H)-carboxylate] | – |
| 380 | CC(C)(C)OC(=O)N1CCc2ccc(C#Cc3cc(-c4nn(CC(O)CN5CCCCC5)c5c4CN(S(C)(=O)=O)CC5)ccc3Cl)cc2C1 (stereo not shown) [Example 371, 1,1-Dimethylethyl 7-({2-chloro-5-[1-(2-hydroxy-3-piperidin-1-ylpropyl)-5-(methylsulfonyl)-4,5,6,7-tetrahydro-1H-pyrazolo[4,3-c]pyridin-3-yl]phenyl}ethynyl)-3,4-dihydroisoquinoline-2(1H)-carboxylate] | – |
| – | CC(C)(C)C1CCN(CCCn2nc(-c3ccc(Cl)c(C#Cc4ccc(CNCc5ccc(Cl)cc5)cc4)c3)c3c2CCN(S(C)(=O)=O)C3)CC1 [Example 372, 1-[4-({2-Chloro-5-[1-{3-[4-(1,1-dimethylethyl)piperidin-1-yl]propyl}-5-(methylsulfonyl)-4,5,6,7-tetrahydro-1H-pyrazolo[4,3-c]pyridin-3-yl]phenyl}ethynyl)phenyl]-N-[(4-chlorophenyl)methyl]methanamine] | 60 |
| 170 | CC(C)(C)OC(=O)N1CCc2ccc(C#Cc3cc(-c4nn(CC(O)CN5CCC(C(N)=O)CC5)c5c4CN(S(C)(=O)=O)CC5)ccc3Cl)cc2C1 (stereo not shown) [Example 373, 1,1-Dimethylethyl 7-({5-[1-{3-[4-(aminocarbonyl)piperidin-1-yl]-2-hydroxypropyl}-5-(methylsulfonyl)-4,5,6,7-tetrahydro-1H-pyrazolo[4,3-c]pyridin-3-yl]-2-chlorophenyl}ethynyl)-3,4-dihydroisoquinoline-2(1H)-carboxylate] | – |
| – | CC(C)(C)OC(=O)N1CCc2ccc(C#Cc3cc(-c4nn(CCCN5CCC(C(N)=O)CC5)c5c4CN(S(C)(=O)=O)CC5)ccc3Cl)cc2C1 [Example 374, 1,1-Dimethylethyl 7-({5-[1-{3-[4-(aminocarbonyl)piperidin-1-yl]propyl}-5-(methylsulfonyl)-4,5,6,7-tetrahydro-1H-pyrazolo[4,3-c]pyridin-3-yl]-2-chlorophenyl}ethynyl)-3,4-dihydroisoquinoline-2(1H)-carboxylate] | 160 |
| – | CS(=O)(=O)N1CCc2c(c(-c3ccc(Cl)c(C#Cc4ccc5c(c4)CCNCC5)c3)nn2CCCN2CCOCC2)C1 [Example 375, 7-({2-Chloro-5-[5-(methylsulfonyl)-1-(3-morpholin-4-ylpropyl)-4,5,6,7-tetrahydro-1H-pyrazolo[4,3-c]pyridin-3-yl]phenyl}ethynyl)-2,3,4,5-tetrahydro-1H-3-benzazepine] | 410 |
| 1010 | CC(C)(C)OC(=O)NCc1cccc(C#Cc2cc(-c3nn(CCCN4CCOCC4)c4c3CN(S(C)(=O)=O)CC4)ccc2Cl)c1 [Example 376, 1,1-Dimethylethyl {[3-({2-chloro-5-[5-(methylsulfonyl)-1-(3-morpholin-4-ylpropyl)-4,5,6,7-tetrahydro-1H-pyrazolo[4,3-c]pyridin-3-yl]phenyl}ethynyl)phenyl]methyl}carbamate] | – |
| – | CS(=O)(=O)N1CCc2c(c(-c3ccc(Cl)c(C#Cc4cccc(CN)c4)c3)nn2CCCN2CCOCC2)C1 [Example 377, 1-[3-({2-Chloro-5-[5-(methylsulfonyl)-1-(3-morpholin-4-ylpropyl)-4,5,6,7-tetrahydro-1H-pyrazolo[4,3-c]pyridin-3-yl]phenyl}ethynyl)phenyl]methanamine] | 470 |
| – | CC(C)(C)C1CCN(CCCn2nc(-c3ccc(Cl)c(C#Cc4ccc5c(c4)CNCC5)c3)c3c2CCN(S(C)(=O)=O)C3)CC1 [Example 378, 7-({2-Chloro-5-[1-{3-[4-(1,1-dimethylethyl)piperidin-1-yl]propyl}-5-(methylsulfonyl)-4,5,6,7-tetrahydro-1H-pyrazolo[4,3-c]pyridin-3-yl]phenyl}ethynyl)-1,2,3,4-tetrahydroisoquinoline] | 80 |
| 290 | CS(=O)(=O)N1CCc2c(c(-c3ccc(Cl)c(C#Cc4cccc(CNCc5ccccc5)c4)c3)nn2CCCN2CCOCC2)C1 [Example 379, 1-[3-({2-Chloro-5-[5-(methylsulfonyl)-1-(3-morpholin-4-ylpropyl)-4,5,6,7-tetrahydro-1H-pyrazolo[4,3-c]pyridin-3-yl]phenyl}ethynyl)phenyl]-N-(phenylmethyl)methanamine] | – |
| – | CS(=O)(=O)N1CCc2c(c(-c3ccc(Cl)c(C#Cc4ccc(CNCc5ccc(Cl)cc5)cc4)c3)nn2CCCN2CCN(C(=O)c3ccccc3)CC2)C1 [Example 380, 1-[4-({2-Chloro-5-[5-(methylsulfonyl)-1-{3-[4-(phenylcarbonyl)piperazin-1-yl]propyl}-4,5,6,7-tetrahydro-1H-pyrazolo[4,3-c]pyridin-3-yl]phenyl}ethynyl)phenyl]-N-[(4-chlorophenyl)methyl]methanamine] | 60 |
